According to the METLIN SMRT retention time set (Domingo-Almenara et al. 2019):

Assay: gradient 5% acetonitrile 3 min, to 50% in 2 min, to 85% in 15 min, held 3 min, 100 µL/min
Conditions: column: Zorbax Extend-C18 2.1 x 50 mm; eluents: water / acetonitrile, 0.1% formic acid
Method in brief: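 Data were gathered over 3 months by HPLC coupled to a quadrupole time-of-flight mass spectrometer, operated in positive and negative ionization mode. Mixtures of ~100 pure standards ran on a Zorbax Extend-C18 column (2.1 × 50 mm, 1.8 μm) at 100 μL/min, with water and acetonitrile each containing 0.1% formic acid and dead and dwell volumes of 40 μL and 900 μL. Retention time was read from adduct peaks picked by computer and checked manually.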

SMILES	RP-LC retention time
COC(=O)c1cccc(-c2nc(C3CC(=O)N(c4ccc(F)cc4)C3)no2)c1 (configuration not stated)	884 s
CN(Cc1ccccc1)C(=O)c1cccc(NC(=O)[C@H]2[C@@H]3C[C@@H]4[C@H]2C(=O)O[C@@H]4C3)c1	766 s
Cn1nc(-c2nnc(-c3ccc(F)cc3)o2)c2c1CCN(S(=O)(=O)c1ccccc1F)C2	937 s
c1ccc(-c2nc3ccccc3nc2N2CCOCC2)cc1	995 s
Cc1ccc(OCc2nn3c(-c4ccoc4C)nnc3s2)cc1	1010 s
COc1ccc(C(=O)N2CCC[C@H]2c2nc(C(C)C)n[nH]2)c(OC)n1	590 s
COc1cc(-c2nc3ccc(Cl)cn3c2Nc2ccccc2C)ccc1O	720 s
O=C(Nc1ccc2nc(-c3ccccc3)cc(N3CCOCC3)c2c1)NC1CCCCC1	732 s
O=C(Nc1ccc(Cl)cc1)C1CC(=O)N(CCc2c[nH]c3ccc(F)cc23)C1 (configuration not stated)	857 s
CCN1C(=O)COc2ccc(-c3noc(CNS(=O)(=O)c4ccccc4)n3)cc21	842 s
CC(C)(C)c1noc(-c2ccnc(-n3cnc(C(=O)N4CCc5ccccc5C4)c3)c2)n1	1080 s
Cc1ccc(-c2nc3ccccn3c2CCC(=O)Nc2ccc(Br)cc2C)cc1	770 s
COc1ccc(-c2noc(Cc3nnc(-c4cccc(F)c4)o3)n2)cc1	1020 s
Cc1ccc(CNC(=O)c2cn3ccc(C)cc3n2)cc1	670 s
CCc1noc([C@@H]2CC(F)(F)CN2C(=O)c2cn(C)cn2)n1	644 s
CC1=CC(=O)CC(C)(C)C1(O)/C=C/C(C)=C/C(=O)O (configuration not stated)	693 s
CCOC(=O)c1c(S(=O)(=O)N2CCC(C(=O)Nc3ccc(Cl)cc3)CC2)c(C)n(CC)c1C	957 s
COc1ccc(N2C(=O)C3N=NN(Cc4nc(-c5ccc(Cl)cc5)no4)C3C2=O)cc1OC (configuration not stated)	963 s
Cc1ccc2nc(NC(=O)C3CC(=O)N(c4n[nH]c5ccccc45)C3)sc2c1 (configuration not stated)	787 s
O=S(=O)(Nc1cccc(Cl)c1)c1ccc(-c2nnc(C3CCC3)o2)o1	967 s
CC1Oc2ccc(-c3csc(NC(=O)c4cccc(Br)c4)n3)cc2NC1=O (configuration not stated)	995 s
Cn1c(CCN2C(=O)C3(CCOCC3)CC2c2nnnn2C(C)(C)C)nc2ccccc21 (configuration not stated)	578 s
COc1cccc(NC(=O)c2cc(C(C)(C)C)n3nccc3n2)c1	1250 s
COc1ccccc1CN1CC(F)(F)C[C@H]1COc1ccncc1	623 s
Cc1c(C(=O)C(=O)Nc2ccc(C(N)=O)cc2)c2ccccc2n1C	686 s

SMILES	RP-LC retention time
O=C(NCc1c(F)cccc1F)c1csc(Nc2ncccn2)n1	695 s
CNc1nc(Nc2ccccc2C)nc2ccccc12	664 s
CCOc1ccc(S(=O)(=O)Nc2ccc3c(c2)CCC(=O)N3CC(C)C)cc1	901 s
Cc1ccc(-c2coc(-c3ccc(NC(=O)c4cccs4)cc3)n2)cc1	1170 s
Cc1ccccc1NC(=O)Cn1c(C)nc2onc(C)c2c1=O	738 s
CCOc1cc(-c2ccccc2)nc2ccc(NS(=O)(=O)c3ccc(NC(C)=O)cc3)cc12	669 s
COc1ccc2c(c1)C1(CCN(C(=O)c3cccc(Br)c3)C1)C(=O)N2C (configuration not stated)	845 s
COc1cc(-c2nc(C3CC(=O)N(c4ccc(C)cc4)C3)no2)cc(OC)c1OC (configuration not stated)	834 s
Cc1ccc(C(=O)N2C[C@@H](C)[C@H](c3nc(C)no3)C2)cn1	593 s
COc1ccc(NC(=O)Cn2c(=O)n(-c3ccccc3)c(=O)c3c2cc(C)n3C)cc1Cl	842 s
COc1ccc(NC(=O)Cn2c(=O)c3cc(C)nn3c3ncccc32)cc1Cl	724 s
O=C(Cn1cc2c(n1)CCCCC2)Nc1ccc(Br)cc1F	1050 s
O=C(NCc1ccccc1F)c1ccc(Cn2c(C(F)(F)F)nc3cccnc32)cc1	876 s
Fc1ccc2nc(Nc3nc(-c4ccncc4)cs3)sc2c1	588 s
O=C(Nc1ccccc1[N+](=O)[O-])C(=O)N1CCN(Cc2ccc3c(c2)OCO3)CC1	592 s
CC1=C(C(=O)Nc2ccc(F)cc2C)C2(CCCCCC2)OC1=O	972 s
CCOC(=O)c1c(C)[nH]c(C(=O)N2CCCC(C(=O)NC3CCCCC3)C2)c1C (configuration not stated)	838 s
COCC1CN(S(=O)(=O)c2cc(F)ccc2OC)CC12CCNCC2 (configuration not stated)	611 s
CC1=C(C(=O)Nc2cc(Cl)ccc2C(=O)NC2CCC(C)CC2)SCCO1 (configuration not stated)	1310 s
COc1ccc2c(c1)OC1(C)CC2C(S(=O)(=O)c2ccc(C)cc2)C(=O)N1 (configuration not stated)	877 s
CCN(CC)c1ncc2c(n1)CCC(C(=O)Nc1ccc(OC)c(OC)c1)C2 (configuration not stated)	660 s
COc1cccc(Cn2c(C)c(CNCc3cccnc3)c(C(=O)O)c2C)c1	625 s
CN(CCNC(=O)c1sc2ncccc2c1-n1cccc1)Cc1ccccc1	666 s
CCCN1CCN(S(=O)(=O)c2cc(-c3nnc(C(C)C)o3)co2)CC1	618 s

Next, values leading:

RP-LC retention time	SMILES
872 s	CCOc1ccccc1NC(=O)N1CCC2(CC1)NC(=O)c1cc(C)ccc1N2C
764 s	COc1cc(NC(=O)COc2cc(C)nc(N3CCN(c4ccccc4)CC3)n2)cc(OC)c1OC
626 s	Nc1nc(N2CCOCC2)ncc1C(=O)NCc1ccccc1F
842 s	CCOc1ccc(C(=O)N2CCC3(CC2)C(=O)N(C)c2ccccc23)cc1OCC
663 s	O=C(NCCN1CCCC1)C1CCCN(c2ccc(Sc3ccc(Br)cc3)nn2)C1 (configuration not stated)
843 s	COc1ccc(Cn2cccc(S(=O)(=O)N3CCCC3)c2=O)cc1F
1280 s	CCOC(=O)c1cc(C2CC2)nc2c1c(=O)n(Cc1cccc(Br)c1)c(=O)n2C
732 s	O=C(Nc1nccs1)C1CCN(C(=O)c2cc(-c3ccccc3)on2)CC1
963 s	COc1ccccc1N1CCN(C(=O)c2sc3ncccc3c2-n2cccc2)CC1
661 s	CCOc1ccc(-c2[nH]ncc2CN2C[C@@H]3CCN(S(C)(=O)=O)C[C@]3(CF)C2)cc1
580 s	O=C(c1ccc(CS(=O)c2ccc(Br)cc2)o1)N1CCN(c2ccccn2)CC1 (configuration not stated)
982 s	CC(=O)N1CCCSc2ccc(S(=O)(=O)N3CCN(c4cccc(C)c4)C(C)C3)cc21 (configuration not stated)
1010 s	CCCn1c(=O)c2cc(C(=O)NCc3ccccc3C)nn2c2ccccc21
623 s	O=C(COc1ccc(-c2cnc3ccccc3n2)cc1)NCCN1CCCC1
735 s	Cc1ccccc1-c1nc2nc(C)c(CC(=O)N3CCCC3)c(C)n2n1
638 s	O=C(NCCC1=CCCCC1)C1CCN(c2ccncc2)CC1
714 s	COc1cccc(NC(=O)C2CCN(C(=O)C3CC(=O)N(c4ccccc4)C3)CC2)c1 (configuration not stated)
868 s	CC(=O)N1c2ccc(S(=O)(=O)N3CCCC3)cc2CC1C(=O)NCCCc1ccccc1 (configuration not stated)
888 s	Cc1nn(-c2ccc(F)cc2)c(C)c1S(=O)(=O)N1CCC(C(=O)NC(C)(C)C)CC1

RP-LC retention time	SMILES
698 s	CN1C(=O)c2cc(C(=O)NCc3ccccc3F)nn2CC1(C)C(=O)NC1CCCC1 (configuration not stated)
844 s	CC(C)(C)c1ccc(C(CNC(=O)c2cc(-c3ccc4c(c3)OCCO4)on2)N2CCCC2)cc1 (configuration not stated)
1170 s	Cc1ccc(Cn2c(N3CCCC(C(=O)Nc4ccc(C)c(F)c4)C3)nc3ccsc3c2=O)cc1 (configuration not stated)
591 s	CN1CCN(CCNC(=O)c2ccc3c(c2)nnn3Cc2ccc(F)cc2)CC1
871 s	CCCCc1ccc(NC(=O)CSc2cc(N3CCC(C(=O)NCC)CC3)ncn2)cc1
1140 s	CN1C(=O)COc2ccc(-c3csc(NC(=O)CCC4CCCCC4)n3)cc21
676 s	Cn1ncc(N2CCCC(CC(=O)NCc3cccs3)C2)cc1=O (configuration not stated)
569 s	CC(CCNC(=O)C1CCN(Cc2cn(C)c3ccc(Cl)cc23)CC1)N1CCCCCC1 (configuration not stated)
643 s	CCOCCCNC(=O)N1CCC(c2noc(-c3ccncc3)n2)C1 (configuration not stated)
808 s	COc1ccc(NC(=O)N2CCC3(C2)C(=O)N(C)c2ccccc23)cc1OC (configuration not stated)
788 s	Cc1nnc([C@@H]2CC(F)(F)CN2C(=O)c2nn(C)c3ccccc23)o1
844 s	Cc1sc2ccn(C)c(=O)c2c1C(=O)N1CCN(c2cccc(Cl)c2)CC1
791 s	COc1ccc(N2CCN(c3cc(SCC(=O)Nc4ccc(OC)c(OC)c4)ncn3)CC2)cc1
734 s	COc1ccc(CNC(=O)CN2CCN(Cc3ccc(C)cc3)C(=O)C2=O)cc1
733 s	Cc1ccc(CNC(=O)C2CCN(Cc3cn(C)c4ccc(Cl)cc34)CC2)cc1
695 s	Cc1ccc(C(=O)Nc2ccc3c(N4CCCCC4)ncnc3c2)s1
940 s	CC1CCCN(S(=O)(=O)c2ccc(-c3nnc(C4CC4)o3)o2)C1 (configuration not stated)
1180 s	Cc1ccc(F)cc1NC(=O)Cn1nc(N2CCC(C)CC2)c2ccccc2c1=O
556 s	CN(C)C(=O)c1cc2c(s1)CCC(C(=O)N1CCN(Cc3ccccc3)CC1)C2 (configuration not stated)
